# Assay results: US10472355B2, “Cancer treatment utilizing SP-141 to bind with MDM2 and act as an inhibitor of MDM2 expression” (Texas Tech University System, priority 2014, dated 2019)
# Tests used:
# [1] = tested on: human breast cancer cell lines; experiment: Cell cycle distribution assay; format: cell-based; parameters: dose or concentration left out as unconfirmed; settings: 24 hours
# Experimental: (§1) MDA-MB-468 cells are more sensitive to SP-141 treatment at higher concentrations than MCF-7 and MCF-7 p53 KD cells.
# (§2) FIGS. 8-12 are presented toillustrate that SP-141 induces breast cancer cell death. In experiments conducted by the inventors, cells were exposed to various concentrations of SP-141 for 72 hours, using the MTT assay to evaluate the cell viability and IC50 value. FIG. 9 provides a photograph of such exposure for 24 hours using the colony formation assay. FIG. 10A illustrates a chart associated with 48 hours for the apoptosis assay and FIG. 10B illustrates a similar chart associated with 24 hours for the proliferation assay. FIG. 11 illustrates 24 hour for the cell cycle distribution assay. FIG. 12 illustrates a western blot analysis of the expression of MDM2 and proteins related to apoptosis and cell cycle arrest in human breast cancer cells. All these assays were performed in triplicate, and all the experiments were repeated at least three times (mean±s.e.m., n=9 for each data point, two-sided Student's t-test. *Po 0.01).
# MDM2 protein [2] = experiment: Western blot of MDM2 expression in breast cancer cells; format: cell-based, human; settings: multiple tested cell lines
# Experimental: SP-141 also effects MDM2 expression. […] In the MCF-7 (p53 wt) cells, the wild-type p53 protein level increased, in accordance with an expected inhibition of MDM2. […] SP-141 increases the expression of cleaved PARP and Bax and decreases the expression of Bcl-2 and Cyclin E in a p53-independent manner.
# as §2
# [3] = tested on: MCF-7 cells (both p53 wt and p53 KD); experiment: Proliferation assay; format: cell-based, human; settings: 0.5-mM concentration, 24 hours
# Experimental: as §1, §2
# [4] = tested on: MDA-MB-231 human breast cancer cells; experiment: Wound healing assay (cell migration); format: cell-based; settings: 0.1 or 0.2 mM SP-141, MDA-MB-231 cells
# Experimental: SP-141 inhibits cell migration in vitro and in vivo. A crucial component of tumor cell invasion is cell migration. A wound healing assay can be used to investigate the effect of SP-141 on cancer cell motility, using MDA-MB-231 human breast cancer cells. The cells can be treated with the vehicle, or with 0.1 or 0.2 mM of SP-141, in order to evaluate the cell migration into the wound made in the cell monolayer.
# (§3) FIGS. 28-30 are provided to illustrate that SP-141 inhibits cell metastasis in vitro and in vivo. MDA-MB-231 cells were grown to confluence in a six-well plate, illustrated in FIG. 28. A scratch was made at experimental time zero, and then the cells were exposed to various concentrations of SP-141. The wells were imaged at different time points. All the experiments were repeated at least three times. The effects of SP-141 on the expression of EMT-related proteins in MDA-MB-231 cells is shown in the western blot analysis provided in FIG. 29. About 1×10^ 6 MDA-MB-231-Luc cells were intravenously injected into a tail vein of nude mice. SP-141 was administered by i.p. injection at doses of 20 mg kg, 1 per day, 5 days per week for 2 weeks. The luciferase signals in the mice were detected and photographed using an MS in vivo image system on days 1, 8, and 15, as shown in FIG. 30.
# [5] = tested on: MDM2 protein in MCF-7 and MDA-MB-468 cells; experiment: MDM2 protein degradation (cycloheximide chase, western blot); format: cell-based, human; settings: 0.5 mM SP-141 24 hours, then cycloheximide
# Experimental: SP-141 can also induce MDM2 protein degradation. Specifically. SP-141 can induce MDM2 inhibition in vitro and in vivo. […] The p53 protein was stabilized in MCF-7 cells, but not in the p53 mt […] cells.
# MCF-7 and MDA-MB-468 cells were treated with SP-141 (0.5 mM), and then exposed to cycloheximide (CHX, 15 mg ml 1), an inhibitor of protein synthesis. The graphs in FIG. 20 show the quantification of the western blot data. Cells were treated with SP-141 (0.5 mM) for 24 hours, and then exposed to a proteasome inhibitor, MG 132 (25 mM), for an additional 6 hours. The protein levels of MDM2 were detected with western blot analysis, as illustrated in FIG. 21. Further, cells were transfected with MDM2 and ubiquitin plasmids, followed by treatment with SP-141 for 24 hours. The cells were then exposed to MG132 (25 mM) for an additional 6 hours, and the lysates were subjected to immunoprecipitation with an MDM2 antibody. Cells were transfected with a wild-type MDM2 plasmid or mutant MDM2 plasmid without E3 ligase activity (C464A). After treatment with SP-141 for 24 hours, MDM2 levels were detected with western blot analysis, as illustrated in FIG. 23. Representative images of MDM2 immunofluorescence in control and SP-141 (1 mM)-treated cells are illustrated in FIG. 24. B-actin and DAPI were used as internal references. All the experiments were repeated three times.
# GST-MDM2 = GST-MDM2 (Homo sapiens, UniProt Q00987); experiment: Biotin-avidin pull-down assay with biotinylated SP-141; format: binding; settings: biotin-SP-141 conjugate, avidin beads; purified GST negative control
# GST-MDM2, sequence (Q00987 whole entry): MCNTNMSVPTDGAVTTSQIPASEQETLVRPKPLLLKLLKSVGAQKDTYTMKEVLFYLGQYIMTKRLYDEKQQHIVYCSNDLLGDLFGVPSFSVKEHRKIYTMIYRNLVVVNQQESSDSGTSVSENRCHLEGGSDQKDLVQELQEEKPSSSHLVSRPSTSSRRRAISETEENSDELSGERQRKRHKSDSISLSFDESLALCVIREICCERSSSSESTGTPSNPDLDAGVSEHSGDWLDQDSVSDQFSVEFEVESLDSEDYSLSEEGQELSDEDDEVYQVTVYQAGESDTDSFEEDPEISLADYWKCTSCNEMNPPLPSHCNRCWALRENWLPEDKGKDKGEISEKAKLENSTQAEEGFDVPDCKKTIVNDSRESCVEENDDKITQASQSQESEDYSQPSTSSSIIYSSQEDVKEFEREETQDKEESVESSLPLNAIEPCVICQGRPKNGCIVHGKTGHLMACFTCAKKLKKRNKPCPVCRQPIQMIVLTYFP
# Description: As illustrated in FIGS. 2 and 3.
# A western blot analysis is illustrated in FIG. 5. […] Purified GST was used as a negative control. The bound protein was detected using anti-MDM2 and anti-GST antibodies.
# The bound protein was detected using anti-MDM2 antibody.
# MDM2 protein [6] = biological target: T1, MDM2 protein (Homo sapiens, UniProt Q00987); experiment: Biacore assay (MDM2 immobilized on CM5 sensor chip); settings: read-out: KD for binding to the MDM2 protein
# T1 sequence (Q00987 whole entry): as above
# Description: (§4) The reduction is proportional to dose. Thus, SP-141 can occupy the p53-binding site on MDM2 as illustrated by FIG. 6. […] Thus, SP-141 serves as a specific MDM2 inhibitor with a high binding capacity for the MDM2 protein.
# (§5) FIG. 7A illustrates a chart illustrating % inhibition. This is illustrative of competitive binding to recombinant human MDM2 proteins using an FP-based binding assay. […] Similarly, FIG. 7B illustrates a chart or responses illustrative of competitive KD values of SP-141 to MDM2 as determined using the Biacore assay. The MDM2 protein was immobilized on a CM5 sensor chip. […] It is noteworthy that all the assays were performed in triplicate, and all the experiments were repeated at least three times.
# breast cancer cell lines = experiment: Colony formation assay; format: cell-based, human; settings: 24 hours exposure
# Experimental: as §2
# MDM2 protein [7] = biological target: T1, MDM2 protein; experiment: FP-based competitive binding assay
# Description: as §4, §5
# [8] = tested on: MDA-MB-231-Luc breast cancer cells; experiment: Experimental metastasis assay; format: in vivo, nude mice; settings: i.p. 20 mg/kg per day for 2 weeks; days 8 and 15
# Experimental: To validate the anti-metastatic effects of SP-141 in vivo, an experimental metastasis assay can be performed. MDA-MB-231-Luc breast cancer cells can be intravenously injected into a tail vein of nulnu mice. The animals are randomly divided into a treatment group and a control group after cell injection. SP-141 can be administered by i.p injection at doses of 20 mg/kg, 1 per day for 2 weeks.
# as §3
# [9] = tested on: MDA-MB-468 xenograft tumors; experiment: MDA-MB-468 xenograft tumor model in nude mice; format: in vivo; settings: i.p. 40 mg/kg per day
# Experimental: (§6) As evidence, SP-141 was administered to nude mice bearing MCF-7 and MDA-MB-468 xenograft tumors. SP-141 was administered by intraperitoneal (i.p.) injection at doses of 40 mg/kgn 1 per day for 42 and 30 days, respectively.
# (§7) FIGS. 13-16 are presented to illustrate that. SP-141 suppresses breast xenograft tumor growth in vivo. FIGS. 13A and 13B illustrate tumor mass in nude mice bearing MCF-7 and MDA-MB-468, respectively. The xenograft tumors were treated with SP-141, which was administered by i.p. injection at 40 mg/kg 1 per day, 5 days per week for 42 and 30 days, respectively. FIGS. 14A and 14B illustrate the tumors after they were removed at the end of the experiments. The mice were also monitored for changes in body weight as a surrogate marker for toxicity in both the MCF-7 (as shown in FIG. 15A) and MDA-MB-468 (as shown if FIG. 15B) xenograft models. At the termination of the experiments, H&E staining of the paraffin sections of some organs from the mice bearing MCF-7 xenograft tumors was performed. (Mean±s.e.m., n>10 for each data point, two-sided Student's t-test, *P<0.01).
# MCF-7 xenograft tumors = experiment: MCF-7 xenograft tumor model in nude mice; format: in vivo
# Experimental: as §6, §7
# p53 KO MCF-7 cells = experiment: Apoptosis assay; format: cell-based, human; settings: 1-mM SP-141, 48 hours
# Experimental: as §2
# p53 wt MCF-7 cells = experiment: Apoptosis assay; format: cell-based, human; settings: 1-mM SP-141, 48 hours
# Experimental: as §2
# p53 mt MDA-MB-468 cells = experiment: Apoptosis assay; format: cell-based, human; settings: 1-mM SP-141, 48 hours
# Experimental: as §2
structure (smiles),measurement,setting,value
"COc1ccc2[nH]c3c(-c4cccc5ccccc45)nccc3c2c1 [SP-141, 6-methoxy-1-(naphthalen-1-yl)-9 H-pyrido[3,4-b]indole]",Effect on cell cycle,[1],induces cell cycle arrest in the G2 phase
same,MDM2 protein levels,MDM2 protein [2],decrease in a concentration-dependent manner
same,Effect on cell proliferation,[3],significant decrease in proliferation
same,Effect on cell migration into the wound,[4],significantly decreased the cell migration
same,Degradation rate of the MDM2 protein,[5],increased the degradation rate of the MDM2 protein
same,Binding to MDM2 versus GST (pull-down),GST-MDM2,"binds to MDM2, but not GST"
same,Kd,MDM2 protein [6],43 nM
same,Effect on cancer cell colony formation,breast cancer cell lines,inhibit cancer cell colony formation in a concentration-dependent manner
same,Ki,MDM2 protein [7],28 ± 6 nM
same,Effect on metastasis (luciferase signals in lung tissues),[8],decreases the metastasis of breast cancer cells
same,Host toxicity monitored by changes in body weight,"[9]; MDA-MB-468 model, 30 days",no significant host toxicity
same,Inhibition of xenograft tumor growth,"[9]; MDA-MB-468 xenograft, day 30",80%
same,Host toxicity monitored by changes in body weight,"MCF-7 xenograft tumors; MCF-7 model, i.p. 40 mg/kg per day, 42 days",no significant host toxicity
same,Inhibition of xenograft tumor growth,"MCF-7 xenograft tumors; MCF-7 xenograft, i.p. 40 mg/kg per day, day 42",82%
same,Organ abnormalities at necropsy / histological examination,"MCF-7 xenograft tumors; mice bearing MCF-7 xenograft tumors, 40 mg/kg per day","no gross organ (liver, lung, kidney, spleen, heart or brain) abnormalities"
same,Increase of apoptotic index,p53 KO MCF-7 cells,7 fold
same,Increase of apoptotic index,p53 wt MCF-7 cells,14 fold
same,Increase of apoptotic index,p53 mt MDA-MB-468 cells,11 fold
